The values below come from patent US6887883B2, “Use of natural chrysanthone compounds having antiangiogenic activity” (Sigma-Tau Industrie Farmaceutiche Riunite S.p.A., priority 2000, dated 2005).

Read-outs that look alike come from different tables or passages of the source. A value given as a limit tells only on which side of the number the result lay.

Type in all cases: cell-based
Experiment [1] has as its system Bovine microvascular endothelial cells (BMEC). In words: Sulphorhodamine B (SRB) cytotoxicity test on BMEC. The settings on record: for IC50: concentration corresponding to 50% of cytotoxic activity, read-out: Cytototoxicity on BMEC IC50; for Cytototoxicity on BMEC IC0: maximum non-cytotoxic concentration. As for the experimental part: The evaluation of the intrinsic toxicity of chrysanthone A was done by comparing it with suramin using the Sulphorhodamine B (SRB) cytotoxicity test described here below.
Bovine microvascular endothelial cells (BMEC) were seeded, at a density of 3000 cells/well, on 96-well microtiter plates, in normal culture medium (200 μl/well). On the next day the study compounds were added to the wells in scalar concentrations. On the third day after seeding the medium was removed and three washings with PBS were performed. At the end of the washings, 200 μl of culture medium were added to each well and the plates were placed in an incubator at 37° C., 5% CO2 for the next 48 hours. At the end of this incubation period, the medium was removed and the cells were treated cold for 1 hour with a solution of 15% trichloroacetic acid (TCA). The wells were washed three times with distilled H2O by immersion of the plate and removal by overturning. 200 μl/well of 0.4% SRB in 1% acetic acid were added to the plates and incubated for 30 min. The wells were washed three times with 1% acetic acid, and lastly 200 μl/well of Tris 10 mM were added.
The staining of the well was quantified by spectrophotometric readout at a wavelength of 540 nm. Comparison of the values obtained in the wells containing the study compound and the controls made it possible to determine the IC50 and IC0 of the compound according to the invention, defined respectively as the concentration corresponding to 50% of cytotoxic activity (IC50) and the maximum non-cytotoxic concentration (IC0).
(§1) This test was conducted using the procedure described in Example 1.

The next experiment has as its system LoVo line. The experiment is described as follows: SRB cytotoxicity test on human tumour line LoVo. (In general: Sulforhodamine B stains cellular protein and so reports cell mass.)
The test system of another experiment is MCF-7 line. The experiment is described as follows: SRB cytotoxicity test on human tumour line MCF-7. The conditions noted are these: MCF7, MCF-7 human tumour line.
The next experiment deals with Mes-Sa line. The experiment is described as follows: SRB cytotoxicity test on human tumour line Mes-Sa.
A further experiment deals with BMEC endothelial cells. The experiment is described as follows: Chemotaxis test using the Boyden chamber (BMEC migration towards bovine serum).
Excerpt: This test is the first screening assay for compounds with potential angiogenesis inhibiting or facilitating activity (Glaser B. M. et al, Nature, 1980; 288:483-4).
Chrysanthone A, one of the compounds to which the invention relates, was subjected to a chemotaxis test using the Boyden chamber (Werner F., Goodwin R. H. and Leonard E. J., Journal of Immunology Methods, 1980; 33:239-247).
The realisation of this in-vitro assay has entailed the development of techniques for the isolation and culture of bovine endothelial cells of both the aorta (BAEC) and the adrenal marrow (BMEC) as well as the identification of suitable reference compounds. One of the advantages of the use of the Boyden chamber for the chemotaxis test is the possibility of obtaining quantitative data. The Boyden chamber consists in an upper and a lower well separated by a polycarbonate filter with 8 μm pores. A solution containing the chemoattractant is placed in the lower well, while the cells are inserted in the upper well. After a period of incubation, the cells which have migrated across the filter in response to the chemotactic stimulus are counted on the undersurface of the membrane.
In the chemotaxis test, the chemoattractant selected was bovine serum (1% in DMEM culture medium). The BMEC endothelial cells were resuspended in DMEM with 1% bovine serum albumin (BSA) and analysed in this test for 4 hours. The chemotaxis was quantified by direct cell count under the optical microscope. The migration percentages presented in the chemotaxis table expressed as “% migration” were calculated according to the formula: (T−C/C)×100 where T=mean number (n^o) of cells migrating in the test sample, and C=mean number of cells migrating in the control.
A control consisting of cells not treated with the study compound, migrating towards the serum, was included in every chemotaxis experiment.
The mean number of cells migrating refers to the readings of 5 microscopic fields/well in 4 independent chemotaxis wells per sample.
Normally, suramin is used as the reference compound in chemotaxis tests.
as §1

The next experiment relates to LoVo-Dx line. In words: SRB cytotoxicity test on human tumour line LoVo-Dx.
Where [2] appears, read: Bos taurus, Endothelial cell, compound at its IC0 (chrysanthone A 0.4 μM, two independent experiments; chrysanthone C 10 μM).

In general, IC50 refers to the concentration that gives 50% inhibition. By inhibition is commonly meant the share of the control response that was lost under treatment. Read a low inhibition as a response near the control.

Regarding `CO[C@@H]1CC(=O)c2c(cc3cc(C)ncc3c2O)[C@@H]1O` [Chrysanthone A], the IC50 in experiment [1] (listed as chrysanthone A) worked out at 1.5 µM; in experiment [1], 35 µM; with LoVo line, 15.8 µM; in the experiment on MCF-7 line, 11.6 µM; in the experiment with Mes-Sa line, 7.8 µM; in the experiment with LoVo-Dx line, 80 µM. Besides, in experiment [1], the “Cytototoxicity on BMEC IC0” value was 0.4 µM. In addition, in the experiment on BMEC endothelial cells (setting [2]), the inhibition at 0.4 µM came to 44%. In the experiment with BMEC endothelial cells (compound at its IC0 (chrysanthone A 0.4 μM, two independent experiments; chrysanthone C 10 μM)), the “inhibition of BMEC migration” value is given as 52%±2.8.
As to `CO[C@@H]1CC(=O)c2c(cc3c(c2O)COC(C)(O)C3)[C@@H]1O` (stereo partly drawn) [Chrysanthone C], the IC50 in experiment [1] (Bos taurus, Endothelial cell) stood at 35 µM. Also, in experiment [1], the “Cytototoxicity on BMEC IC0” value was 10 µM. Further, in the experiment with BMEC endothelial cells (setting [2]), the inhibition at 10 µM came out at 54%.
For the compound `Cc1ccc(C(=O)Nc2ccc(S(=O)(=O)O)c3cc(S(=O)(=O)O)cc(S(=O)(=O)O)c23)cc1NC(=O)c1cccc(NC(=O)Nc2cccc(C(=O)Nc3cc(C(=O)Nc4ccc(S(=O)(=O)O)c5cc(S(=O)(=O)O)cc(S(=O)(=O)O)c45)ccc3C)c2)c1` [Suramin, reference compound], the IC50 in experiment [1] (Bos taurus, Endothelial cell) is over 500 µM. For the same compound, in experiment [1], the “Cytototoxicity on BMEC IC0” value stood at 100 µM. Further, the “% Migration IC0” value with BMEC endothelial cells (1% bovine serum chemoattractant, 4 hours, compound at its IC0 (concentration printed in cell), (T−C/C)×100 vs untreated control) came to 100 μM = −58%.
